The record followed here is ChEMBL document CHEMBL1201862, “PubChem BioAssay data set” (2004).

Activity calls are given as the source filed them.

What all share (assay type): functional
Test [1] concerns the target T1, Polyadenylate-binding protein 1 (Homo sapiens, UniProt P11940). Nature of the test: PABP1 MLLE–PAM2 binding inhibitor potency, dose response, biochemical, fluorescence polarization, FITC-PAM2 peptide (AID 602259). The conditions noted are these: read-out: IC50_Mean.
Test [2] deals with T1, Polyadenylate-binding protein 1. Nature of the test: PABP1 MLLE–PAM2 interaction inhibitors, dose response, miRNA deadenylation inhibitor project, biochemical, fluorescence polarization, Cy5-PAM2 peptide, secondary (AID 602260). To be noted: read-out: IC50_Mean. In general terms: In fluorescence polarisation assays a small probe gives low polarisation when free and higher when bound to something large.

The target of test [3] is T2, High affinity choline transporter 1 (Homo sapiens, UniProt Q9GZV3).
T2 sequence (Q9GZV3 whole entry): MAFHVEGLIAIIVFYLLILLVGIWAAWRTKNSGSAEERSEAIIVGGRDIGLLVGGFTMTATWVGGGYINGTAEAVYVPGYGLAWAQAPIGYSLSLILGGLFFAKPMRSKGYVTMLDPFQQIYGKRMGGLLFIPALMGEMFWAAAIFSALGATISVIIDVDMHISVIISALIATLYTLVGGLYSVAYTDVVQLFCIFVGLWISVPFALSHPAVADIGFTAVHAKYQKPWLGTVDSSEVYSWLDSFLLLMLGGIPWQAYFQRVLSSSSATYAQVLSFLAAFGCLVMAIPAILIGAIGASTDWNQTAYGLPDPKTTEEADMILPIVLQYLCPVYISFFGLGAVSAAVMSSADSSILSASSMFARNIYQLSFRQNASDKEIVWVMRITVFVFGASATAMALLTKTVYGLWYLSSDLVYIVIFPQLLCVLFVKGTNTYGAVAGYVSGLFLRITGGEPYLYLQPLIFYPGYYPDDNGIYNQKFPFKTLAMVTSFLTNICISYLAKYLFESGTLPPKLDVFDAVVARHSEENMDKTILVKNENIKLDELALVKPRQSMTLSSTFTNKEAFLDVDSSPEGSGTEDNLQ
The test can be described thus: CHT inhibitors, dose response, cell-based, 10-point CRC, membrane potential dye (AID 588401).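 Note: membrane potential dye fluorescence of choline-evoked depolarization via CHT.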

Test [4] addresses T2, High affinity choline transporter 1. Nature of the test: CHT inhibitors, dose response, cell-based, 5-point CRC, membrane potential dye (AID 504840).
Test [5] concerns the target Protein disulfide-isomerase (Homo sapiens, UniProt P07237). Nature of the test: PDI inhibitors, insulin aggregation turbidity, dose response, biochemical, absorbance, cherry-picked samples (AID 602350).
Test [6] concerns the target Multidrug resistance protein CDR2 (Candida albicans (strain SC5314 / ATCC MYA-2876) (Yeast), UniProt P78595). The test can be described thus: CaCDR2 efflux pump inhibitors in yeast, dose response, S. cerevisiae AD1-8u, singleplex, Cherry Pick1 hits (AID 588604).
Test [7] has as its target T2, High affinity choline transporter 1. Nature of the test: CHT activators, dose response, cell-based, 10-point CRC, membrane potential dye (AID 602376).
Test [8] has as its target Melanin-concentrating hormone receptor 1 (Homo sapiens, UniProt Q99705). Nature of the test: Late-stage fluorescence-based counterscreen for antagonists of the G-protein coupled receptor 7 (GPR7): cell-based dose response assay to identify antagonists of the melanin-concentrating hormone receptor 1 (MCHR1) Set 5.
In test [9] the target is Ribosomal protein S6 kinase alpha-3 (Homo sapiens, UniProt P51812).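 Note: measured within a kinome-wide profiling panel.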
The target in test [10] is Glycogen synthase kinase-3 beta (Homo sapiens, UniProt P49841).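 Note: value comes from a broad kinome profiling panel, with GSK3B as the panel member.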
Test [11] addresses MAP kinase-activated protein kinase 2 (Homo sapiens, UniProt P49137).
The target of test [12] is Ribosomal protein S6 kinase beta-1 (Homo sapiens, UniProt P23443).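 Note: measured as one member of a kinome-wide profiling panel.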
Test [13] addresses T3, DNA dC->dU-editing enzyme APOBEC-3A (Homo sapiens, UniProt P31941). The test can be described thus: SAR analysis of small molecule inhibitors of APOBEC3A DNA Deaminase via a fluorescence-based single-stranded DNA deaminase assay. To be noted: read-out: IC50_Mean.
Test [14] has as its target T4, DNA dC->dU-editing enzyme APOBEC-3G (Homo sapiens, UniProt Q9HC16). The test can be described thus: APOBEC3G deaminase inhibitors, SAR follow-up, biochemical, fluorescence, single-stranded DNA substrate (AID 602136). The conditions noted are these: read-out: IC50_Mean.
Test [15] deals with ALK tyrosine kinase receptor (Homo sapiens, UniProt Q9UM73).
Test [16] addresses Cyclin-dependent kinase 19 (Homo sapiens, UniProt Q9BWU1). The test can be described thus: Navigating the Kinome. Panel member name: CDC2L6.
Test [17] has as its target T3, DNA dC->dU-editing enzyme APOBEC-3A. Nature of the test: SAR analysis of small molecule inhibitors of APOBEC3A DNA Deaminase via a fluorescence-based single-stranded DNA deaminase assay - Set 2. The conditions noted are these: read-out: IC50_Mean.
For test [18], the target named is T4, DNA dC->dU-editing enzyme APOBEC-3G. The test can be described thus: SAR analysis of small molecule inhibitors of APOBEC3G DNA Deaminase via a fluorescence-based single-stranded DNA deaminase assay - Set 2. To be noted: read-out: IC50_Mean.
Test [19] deals with Casein kinase I isoform alpha (Homo sapiens, UniProt P48729).
In test [20] the target is Dual specificity protein kinase CLK4 (Homo sapiens, UniProt Q9HAZ1).
For test [21], the target named is Leukocyte tyrosine kinase receptor (Homo sapiens, UniProt P29376). The test can be described thus: Navigating the Kinome. Panel member name: LTK.
Test [22] has as its target Macrophage-stimulating protein receptor (Homo sapiens, UniProt Q04912). Nature of the test: Navigating the Kinome. Panel member name: MST1R.
Test [23] addresses Maternal embryonic leucine zipper kinase (Homo sapiens, UniProt Q14680).
The target of test [24] is Mitogen-activated protein kinase kinase kinase kinase 2 (Homo sapiens, UniProt Q12851).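 Note: measured as one member of a kinome-wide kinase panel, with MAP4K2 as the panel entry.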
The target in test [25] is Dual specificity tyrosine-phosphorylation-regulated kinase 1B (Homo sapiens, UniProt Q9Y463). Nature of the test: Navigating the Kinome. Panel member name: DYRK1B.
In test [26] the target is Serine/threonine-protein kinase SIK2 (Homo sapiens, UniProt Q9H0K1). The test can be described thus: Navigating the Kinome. Panel member name: SIK2.
For test [27], the target named is Glycogen synthase kinase-3 alpha (Homo sapiens, UniProt P49840).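 Note: GSK3A result taken from a broad kinome-wide kinase panel.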
Test [28] has as its target BDNF/NT-3 growth factors receptor (Homo sapiens, UniProt Q16620).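 Note: NTRK2 measured as one member of a broad kinome-wide kinase profiling panel.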
In test [29] the target is Death-associated protein kinase 3 (Homo sapiens, UniProt O43293).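 Note: measured as one member of a kinome-wide profiling panel.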
In test [30] the target is Proto-oncogene tyrosine-protein kinase ROS (Homo sapiens, UniProt P08922).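 Note: ROS1 tested as one member of a kinome-wide kinase panel.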
The target in test [31] is MAP/microtubule affinity-regulating kinase 4 (Homo sapiens, UniProt Q96L34). Nature of the test: Navigating the Kinome. Panel member name: MARK4.
The target of test [32] is Tyrosine-protein kinase receptor TYRO3 (Homo sapiens, UniProt Q06418).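 Note: TYRO3 value obtained as one member of a kinome-wide profiling panel.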
The target in test [33] is Serine/threonine-protein kinase TAO1 (Homo sapiens, UniProt Q7L7X3).
Test [34] addresses MAP/microtubule affinity-regulating kinase 3 (Homo sapiens, UniProt P27448).
Test [35] addresses Serine/threonine-protein kinase D3 (Homo sapiens, UniProt O94806).

T4 sequence (Q9HC16 whole entry): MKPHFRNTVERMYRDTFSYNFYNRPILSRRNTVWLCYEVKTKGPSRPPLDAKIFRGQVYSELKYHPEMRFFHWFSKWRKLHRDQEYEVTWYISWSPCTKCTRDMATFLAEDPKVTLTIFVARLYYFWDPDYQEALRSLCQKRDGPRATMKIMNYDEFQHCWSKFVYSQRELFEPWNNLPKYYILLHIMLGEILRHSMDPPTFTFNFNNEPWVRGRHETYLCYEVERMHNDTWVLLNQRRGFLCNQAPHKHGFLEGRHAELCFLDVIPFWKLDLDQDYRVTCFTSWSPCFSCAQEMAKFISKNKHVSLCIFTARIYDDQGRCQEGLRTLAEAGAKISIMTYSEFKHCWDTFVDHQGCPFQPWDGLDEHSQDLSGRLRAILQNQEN
T3 sequence (P31941 whole entry): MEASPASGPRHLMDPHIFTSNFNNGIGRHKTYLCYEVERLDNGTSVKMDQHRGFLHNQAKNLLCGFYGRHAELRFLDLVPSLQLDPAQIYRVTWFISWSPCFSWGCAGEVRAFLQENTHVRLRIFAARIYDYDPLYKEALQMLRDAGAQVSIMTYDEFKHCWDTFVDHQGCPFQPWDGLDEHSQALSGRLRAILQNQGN
T1 sequence (P11940 whole entry): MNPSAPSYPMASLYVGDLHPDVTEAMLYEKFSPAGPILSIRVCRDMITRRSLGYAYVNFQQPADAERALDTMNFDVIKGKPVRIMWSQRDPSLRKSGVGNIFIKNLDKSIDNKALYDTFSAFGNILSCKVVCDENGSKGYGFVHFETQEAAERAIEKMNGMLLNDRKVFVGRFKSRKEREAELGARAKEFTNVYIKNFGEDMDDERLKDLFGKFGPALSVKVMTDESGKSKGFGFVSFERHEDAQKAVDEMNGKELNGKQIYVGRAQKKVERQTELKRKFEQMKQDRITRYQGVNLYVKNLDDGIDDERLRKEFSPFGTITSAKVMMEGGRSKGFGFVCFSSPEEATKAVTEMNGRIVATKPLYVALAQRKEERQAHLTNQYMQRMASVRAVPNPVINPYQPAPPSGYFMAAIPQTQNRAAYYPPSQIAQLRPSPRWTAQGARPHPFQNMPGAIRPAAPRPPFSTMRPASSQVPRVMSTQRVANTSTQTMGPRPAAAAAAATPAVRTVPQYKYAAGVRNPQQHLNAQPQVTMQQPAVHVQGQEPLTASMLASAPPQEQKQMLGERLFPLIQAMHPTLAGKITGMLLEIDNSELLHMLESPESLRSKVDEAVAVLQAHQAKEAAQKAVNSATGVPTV
Chain of Dual specificity protein kinase CLK4 (Q9HAZ1 whole entry): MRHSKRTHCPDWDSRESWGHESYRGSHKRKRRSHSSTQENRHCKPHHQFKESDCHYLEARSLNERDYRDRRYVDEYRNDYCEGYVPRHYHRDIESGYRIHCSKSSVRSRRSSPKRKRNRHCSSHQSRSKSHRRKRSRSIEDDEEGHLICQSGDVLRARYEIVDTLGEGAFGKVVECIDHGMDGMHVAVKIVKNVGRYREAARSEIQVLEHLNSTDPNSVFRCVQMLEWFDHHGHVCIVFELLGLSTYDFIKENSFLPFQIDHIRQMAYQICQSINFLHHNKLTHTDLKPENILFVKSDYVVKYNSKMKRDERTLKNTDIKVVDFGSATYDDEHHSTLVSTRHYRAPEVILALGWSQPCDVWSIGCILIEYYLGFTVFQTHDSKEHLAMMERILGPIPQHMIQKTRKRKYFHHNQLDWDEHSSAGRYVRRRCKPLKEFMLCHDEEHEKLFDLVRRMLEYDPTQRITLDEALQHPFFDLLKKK
Chain of Multidrug resistance protein CDR2 (P78595 whole entry): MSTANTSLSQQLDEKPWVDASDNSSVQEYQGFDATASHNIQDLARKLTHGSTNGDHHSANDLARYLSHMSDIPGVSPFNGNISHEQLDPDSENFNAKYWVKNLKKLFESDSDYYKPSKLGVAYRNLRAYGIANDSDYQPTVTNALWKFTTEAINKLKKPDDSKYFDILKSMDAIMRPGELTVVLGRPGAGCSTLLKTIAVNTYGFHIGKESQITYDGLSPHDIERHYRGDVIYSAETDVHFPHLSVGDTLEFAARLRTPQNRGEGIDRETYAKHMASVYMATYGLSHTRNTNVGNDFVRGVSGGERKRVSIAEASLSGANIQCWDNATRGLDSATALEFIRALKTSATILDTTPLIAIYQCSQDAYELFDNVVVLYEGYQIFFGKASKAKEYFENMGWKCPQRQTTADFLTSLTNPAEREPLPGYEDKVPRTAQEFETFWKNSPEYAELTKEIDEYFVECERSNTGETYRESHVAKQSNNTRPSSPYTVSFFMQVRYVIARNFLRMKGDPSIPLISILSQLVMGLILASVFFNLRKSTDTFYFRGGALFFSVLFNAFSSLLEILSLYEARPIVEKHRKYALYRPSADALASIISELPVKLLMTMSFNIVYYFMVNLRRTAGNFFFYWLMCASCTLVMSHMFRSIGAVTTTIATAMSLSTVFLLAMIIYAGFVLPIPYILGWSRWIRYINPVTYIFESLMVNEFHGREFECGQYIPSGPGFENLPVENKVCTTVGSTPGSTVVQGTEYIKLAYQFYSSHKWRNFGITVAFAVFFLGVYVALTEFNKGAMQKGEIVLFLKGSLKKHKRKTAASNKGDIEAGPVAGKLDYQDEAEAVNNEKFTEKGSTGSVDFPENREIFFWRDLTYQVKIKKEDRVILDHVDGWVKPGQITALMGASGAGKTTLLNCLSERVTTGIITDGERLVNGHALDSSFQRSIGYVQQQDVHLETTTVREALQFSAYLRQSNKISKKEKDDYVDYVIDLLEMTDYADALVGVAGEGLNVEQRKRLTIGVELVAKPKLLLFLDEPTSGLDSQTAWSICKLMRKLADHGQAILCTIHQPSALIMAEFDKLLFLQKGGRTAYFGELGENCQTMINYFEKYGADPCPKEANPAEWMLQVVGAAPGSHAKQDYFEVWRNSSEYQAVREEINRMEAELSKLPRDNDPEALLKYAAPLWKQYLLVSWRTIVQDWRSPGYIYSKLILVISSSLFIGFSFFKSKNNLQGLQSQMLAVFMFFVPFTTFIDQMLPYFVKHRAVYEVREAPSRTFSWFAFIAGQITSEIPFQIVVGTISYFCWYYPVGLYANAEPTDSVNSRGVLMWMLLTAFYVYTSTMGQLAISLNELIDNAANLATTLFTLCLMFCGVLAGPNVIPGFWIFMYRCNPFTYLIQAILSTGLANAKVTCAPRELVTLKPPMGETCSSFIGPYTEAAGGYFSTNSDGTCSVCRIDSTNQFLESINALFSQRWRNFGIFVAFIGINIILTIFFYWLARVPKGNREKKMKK
Chain of Maternal embryonic leucine zipper kinase (Q14680 whole entry): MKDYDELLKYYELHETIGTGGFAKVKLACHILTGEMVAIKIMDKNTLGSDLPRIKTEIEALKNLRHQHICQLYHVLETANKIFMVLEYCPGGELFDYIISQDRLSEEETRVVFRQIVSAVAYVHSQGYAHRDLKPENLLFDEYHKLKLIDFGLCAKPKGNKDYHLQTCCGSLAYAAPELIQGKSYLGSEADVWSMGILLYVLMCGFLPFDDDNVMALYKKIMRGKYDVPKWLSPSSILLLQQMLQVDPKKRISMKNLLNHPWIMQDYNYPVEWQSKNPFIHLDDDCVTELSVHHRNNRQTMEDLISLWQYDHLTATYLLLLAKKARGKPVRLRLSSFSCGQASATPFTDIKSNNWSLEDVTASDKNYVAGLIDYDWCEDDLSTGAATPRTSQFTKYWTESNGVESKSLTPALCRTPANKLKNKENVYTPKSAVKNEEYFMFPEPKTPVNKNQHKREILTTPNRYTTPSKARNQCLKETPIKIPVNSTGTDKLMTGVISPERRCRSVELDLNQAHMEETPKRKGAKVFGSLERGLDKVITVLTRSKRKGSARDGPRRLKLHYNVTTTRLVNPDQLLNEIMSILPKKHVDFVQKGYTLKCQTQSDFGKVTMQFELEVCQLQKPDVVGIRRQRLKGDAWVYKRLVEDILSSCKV
Chain of Glycogen synthase kinase-3 beta (P49841 whole entry): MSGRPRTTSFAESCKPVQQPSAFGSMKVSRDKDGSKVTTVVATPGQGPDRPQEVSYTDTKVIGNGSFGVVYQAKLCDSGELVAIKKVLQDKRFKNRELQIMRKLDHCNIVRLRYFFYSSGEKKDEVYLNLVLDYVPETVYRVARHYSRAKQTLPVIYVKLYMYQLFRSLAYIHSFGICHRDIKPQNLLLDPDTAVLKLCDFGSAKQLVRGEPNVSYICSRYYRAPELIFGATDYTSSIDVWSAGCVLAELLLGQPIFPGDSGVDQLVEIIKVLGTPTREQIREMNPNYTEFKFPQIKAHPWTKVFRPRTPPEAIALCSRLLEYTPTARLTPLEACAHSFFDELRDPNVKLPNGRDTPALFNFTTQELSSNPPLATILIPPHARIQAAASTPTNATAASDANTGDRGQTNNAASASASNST
Chain of Melanin-concentrating hormone receptor 1 (Q99705 whole entry): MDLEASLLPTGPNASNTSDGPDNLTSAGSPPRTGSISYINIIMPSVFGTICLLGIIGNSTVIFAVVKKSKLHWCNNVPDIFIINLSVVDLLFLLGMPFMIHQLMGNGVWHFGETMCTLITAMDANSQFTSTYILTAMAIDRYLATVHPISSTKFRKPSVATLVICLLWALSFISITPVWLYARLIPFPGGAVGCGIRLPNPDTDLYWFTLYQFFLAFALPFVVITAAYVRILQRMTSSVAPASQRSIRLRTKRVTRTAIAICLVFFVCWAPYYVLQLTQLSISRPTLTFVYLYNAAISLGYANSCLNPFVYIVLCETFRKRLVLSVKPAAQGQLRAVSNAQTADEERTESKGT
Chain of Casein kinase I isoform alpha (P48729 whole entry, canonical isoform): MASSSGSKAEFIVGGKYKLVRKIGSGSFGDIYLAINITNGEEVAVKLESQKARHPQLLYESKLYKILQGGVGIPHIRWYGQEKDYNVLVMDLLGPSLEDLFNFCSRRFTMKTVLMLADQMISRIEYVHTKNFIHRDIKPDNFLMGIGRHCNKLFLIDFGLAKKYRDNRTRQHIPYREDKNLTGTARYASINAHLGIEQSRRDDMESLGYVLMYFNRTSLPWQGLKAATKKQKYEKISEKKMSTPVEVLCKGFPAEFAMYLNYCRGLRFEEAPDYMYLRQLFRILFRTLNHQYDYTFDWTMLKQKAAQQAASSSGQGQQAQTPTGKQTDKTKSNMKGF

Take `S=C(NCc1ccccn1)Nc1ccc(Br)cc1Cl`: the IC50 in test [1] was > 66 µM (inactive); in [2], > 66 µM (inactive); in test [3], 1.58 µM (active); in test [4], 3.84 µM (active).
What is called AC50 is the midpoint of the concentration-response curve, whichever way the signal moves. As for `CCOc1cc(N2CCOCC2)c(OCC)cc1NC(=O)COC(=O)[C@H](Cc1c[nH]c2ccccc12)NC(C)=O`, in test [5], the AC50 was 19.5 µM (active).
For orientation: EC50 means the concentration giving half of the maximal effect. For the compound `COc1ccc(-c2nc3ccccc3c(=O)n2CCOc2ccc(C)cc2C)cc1`, the EC50 in test [6] was 15.2 µM (active).
On to `CCCCn1c(N)c(N(CCC(C)C)C(=O)C2CCCN(C(=O)c3ccc(Cl)cc3)C2)c(=O)[nH]c1=O` (stereo not given), for which the half-maximal effective concentration (EC50) in test [7] is 21.3 µM (active).
For `COc1ccc(Oc2c(Cl)cnn(Cc3cccc4ccccc34)c2=O)c(F)c1`, in test [8], the IC50 is 6.24 µM (active).
Broadly, the Ki is the equilibrium dissociation constant of an inhibitor or competing ligand from its target. With `CCOC(=O)c1c(NC(=O)C2C(C)(C)C2(C)C)sc2cnccc12`, the inhibitory constant (Ki) in [9] was 6.31 µM (active); in test [10], 3.98 µM (active); in test [11] it was 6.31 µM (active); in test [12], 2.51 µM (active).
For `CCCCn1c(=O)c2ccccc2n2c(SCCS(=O)(=O)c3ccccc3)nnc12`, the IC50 in test [13] and in test [14] was > 99 µM (inactive) in each case.
Turning to `Cn1cc(Nc2ncc(Cl)c(Nc3ccccc3)n2)cn1`, the Ki is 1.58 µM (active) in test [15] and 2 µM (active) in [16].
Turning to `CCc1nc2sc3c(c2c2nnc(S)n12)CCC(C)C3` (stereo not given), the IC50 in test [17] and in [18] was > 99 µM (inactive) in each case.
In the case of `Nc1nnc(-c2ccccc2)c(N)n1`, the results for the inhibition constant Ki in test [19] and in [20] were 20 µM (active) and 39.8 µM (active), respectively.
Turning to `Nc1nc(Nc2ccc(S(N)(=O)=O)cc2)nn1C(=O)c1c(F)cccc1F` [JNJ-7706621], the Ki is > 1.58 µM (inactive) in test [21]; 100 nM (active) in test [22]; 631 nM (active) in test [23]; 1.58 µM (active) in test [24]; > 2 µM (inactive) in test [25]; 251 nM (active) in test [26]. In addition, the Ki is 158 nM (active) in test [27]; 2 µM (active) in test [28]; 2 µM (active) in test [29]; 501 nM (active) in [30]; 100 nM (active) in test [31]; 794 nM (active) in test [32]. In addition, the Ki in test [33] was 25.1 nM (active); in test [34], 794 nM (active); in test [35], 2 µM (active).
